According to patent publication US20130280235A1, “METHODS OF DIAGNOSIS AND TREATMENT FOR METABOLIC DISORDERS” (DiaMedica Inc., priority 2006, published 2013):

Tests used:
Sprague-Dawley rats = experiment: Euglycemic hyperinsulinemic clamp in rats made insulin resistant by a high-sucrose diet; format: in vivo, rat; conditions: up to one unit by bolus IV injection, last hour of 2 h clamp, versus saline controls
Description: A litter of 14 Sprague-Dawley rats, (from Charles River, St-Constant, Canada), obtained at 5 weeks old are accommodated individually in cages. The animals are acclimatized to a temperature of 22° C.+/−1° C. and constant humidity and airflow conditions. The animals are fed a high sucrose diet. During the 2 weeks prior to experimentation, the animals have free access to tap water, are provided their controlled diet and their body weight and food intake are recorded every other day. The high-sucrose diet consists of 62.5% (wt/wt) sucrose, 6.5% corn oil, 20% protein (casein, purified high nitrogen), 0.3% dl-methionine, 1% vitamin mix, 4.7% mineral mix and 5% cellulose. The energy density of the high-sucrose diet is 16.81 kJ/g. This high-sucrose diet induces insulin resistance. […]
Analytical Methods—The rats are anesthetized and venous blood samples are taken for plasma glucose and insulin assessment and rapidly centrifuged. […] Resting heart rate, blood pressure and regional blood flows are recorded over 30 minutes in quiet, unrestrained and unsedated rats.
Euglycemic Clamp Methodology—All rats receive an infusion of regular porcine insulin at a rate of 16 mU·kg^−1·min^−1 for 2 hours. […] The Euglycemic hyperinsulinemic clamp is performed over 2 hours, while blood pressure, heart rate, and regional blood flow is measured continuously with blood samples. […]

Wistar rats = experiment: Oral glucose challenge (2 g/kg) in fasted rats, serum glucose by enzymatic method (Mutaratase-GOD); format: in vivo, rat; conditions: male Wistar rats; for Blood Glucose at T0: fasted, agent given one hour before, sample immediately prior to oral glucose loading; for Blood Glucose at T90: 90 minutes post oral glucose challenge 2 g/kg; for Change in Blood Glucose: T0 to T90 after oral glucose 2 g/kg
Description: Groups of 5 male Wistar rats weighing 200+/−10 g were employed. Fasted animals were injected with agent or placebo (GLP-1, 1 nmole/kg, iv) and/or gavaged with agent or placebo (tissue kallikrein (SIGMA), 200 U) one hour prior to glucose challenge. A blood sample was taken immediately prior oral glucose loading (2 g/kg). At 90 minutes post glucose challenge a second blood sample was taken. The serum glucose samples were assessed by enzymatic method (Mutaratase-GOD) for the time points.

Row | Substance | Area under the curve of glucose required to maintain euglycemia (index of insulin sensitivity) (Sprague-Dawley rats) | Blood Glucose at T0 (Wistar rats) [mg/dL] | Blood Glucose at T90 (Wistar rats) [mg/dL] | Change in Blood Glucose (Wistar rats) [mg/dL]
1 | kallikrein | greater area under the curve | – | – | –
2 | glucagon like peptide 1 [GLP-1] | – | 110 | 216 | 116.1 ± 18.1
3 | tissue kallikrein [tissue kallkrein] | – | 109 | 229 | 120.2 ± 20.7
